Measurements reported in patent US6525001B1, “Substituted pyrimidine and pyridine herbicides” (Mid-American Commercialization Corporation, priority 1997, dated 2003).

Columns and labels:
Assay type in all cases: in vivo
Design in all cases: key: 0 is no effect; 10 is complete control
[1] = test system: rice (Oryza sativa); assay: Test B flood test; conditions: for Plant response rating, Rice: Postemergence (flood test species)
How it was run: (§1)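 Flood test on plants grown to the 2-leaf stage; treated plants kept in greenhouse twelve to sixteen days, then visually rated against controls on a 0 (no effect) to 10 (complete control) scale.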

[2] = test system: smallflower flatsedge (Cyperus difformis); assay: Test B flood test; conditions: for Plant response rating, S. Flatsedge: Postemergence (flood test species)
How it was run: as §1

[3] = test system: bamyardgrass (Echinochloa crus-galli); assay: Test B flood test; conditions: for Plant response rating, Barnyardgrass: Postemergence (flood test species)
How it was run: as §1

[4] = test system: duck salad (Heteranthera limosa); assay: Test B flood test; conditions: for Plant response rating, Ducksalad: Postemergence (flood test species)
How it was run: as §1

[5] = test system: giant foxtail (Setaria faberii); assay: Test B pre-/postemergence
How it was run: (§2)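 Scored visually 0 (none) to 10 (complete control) against untreated plants after twelve to sixteen greenhouse days. Test chemicals, formulated in surfactant-containing non-phytotoxic solvent, applied to soil after planting and, separately, onto 1- to 4-leaf (2–18 cm) plants.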

[6] = test system: purple nutsedge (Cyperus rotundus); assay: Test B pre-/postemergence
How it was run: as §2

[7] = Rate 62 g/ha, Postemergence (flood test)
[8] = Rate 125 g/ha, Postemergence section (flood test species)
[9] = Preemergence, Rate 62 g/ha, scale of 0 to 10

Cc1cnc(-n2cnc(C(F)(F)F)n2)nc1C(=O)c1cccc(OC(F)(F)F)c1 [Compound 64]
3: Plant response rating, Rice ([1]; Rate 500 g/ha) | Barnyardgrass plant response rating [3, 8] | Giant foxtail plant response rating ([5]; Rate 125 g/ha, Postemergence)
2: Plant response rating, Rice ([1]; Rate 250 g/ha) | Barnyardgrass plant response rating [3, 7] | Plant response rating, Giant foxtail ([5]; Rate 125 g/ha, Preemergence) | Plant response rating, Nutsedge ([6]; Rate 500 g/ha, Postemergence) | Plant response rating, Nutsedge ([6]; Rate 500 g/ha, Preemergence)
4: Plant response rating, Barnyardgrass ([3]; Rate 250 g/ha) | Ducksalad plant response rating [4, 7] | Plant response rating, Giant foxtail ([5]; Rate 250 g/ha, Postemergence)
1: Rice plant response rating [1, 7] | Rice plant response rating [1, 8] | Plant response rating, Giant foxtail [5, 9] | Giant foxtail plant response rating ([5]; Rate 62 g/ha, Postemergence)
0: Plant response rating, Nutsedge [6, 9] | Nutsedge plant response rating ([6]; Rate 62 g/ha, Postemergence) | Nutsedge plant response rating ([6]; Rate 125 g/ha, Postemergence) | Plant response rating, Nutsedge ([6]; Rate 250 g/ha, Postemergence)
8: S. Flatsedge plant response rating [2, 7] | S. Flatsedge plant response rating [2, 8] | Plant response rating, S. Flatsedge ([2]; Rate 250 g/ha)
6: Ducksalad plant response rating [4, 8] | Plant response rating, Ducksalad ([4]; Rate 250 g/ha) | Plant response rating, Giant foxtail ([5]; Rate 500 g/ha, Preemergence)
5: Plant response rating, Barnyardgrass ([3]; Rate 500 g/ha) | Plant response rating, Giant foxtail ([5]; Rate 250 g/ha, Preemergence) | Plant response rating, Giant foxtail ([5]; Rate 500 g/ha, Postemergence)
9: Plant response rating, S. Flatsedge ([2]; Rate 500 g/ha) | Plant response rating, Ducksalad ([4]; Rate 500 g/ha)

Cc1cnc(-n2ccc(C(F)(F)F)n2)nc1C(=O)c1ccc(C(F)(F)F)cc1 [Compound 65]
1: Giant foxtail plant response rating ([5]; Rate 62 g/ha, Postemergence) | Giant foxtail plant response rating ([5]; Rate 125 g/ha, Postemergence) | Plant response rating, Giant foxtail ([5]; Rate 250 g/ha, Postemergence) | Plant response rating, Giant foxtail ([5]; Rate 500 g/ha, Postemergence)
0: Rice plant response rating [1, 7] | Rice plant response rating [1, 8] | Plant response rating, Rice ([1]; Rate 250 g/ha) | Plant response rating, Rice ([1]; Rate 500 g/ha) | S. Flatsedge plant response rating [2, 7] | S. Flatsedge plant response rating [2, 8] | Plant response rating, S. Flatsedge ([2]; Rate 250 g/ha) | Plant response rating, S. Flatsedge ([2]; Rate 500 g/ha) | Barnyardgrass plant response rating [3, 7] | Barnyardgrass plant response rating [3, 8] | Plant response rating, Barnyardgrass ([3]; Rate 250 g/ha) | Plant response rating, Barnyardgrass ([3]; Rate 500 g/ha) | Ducksalad plant response rating [4, 7] | Ducksalad plant response rating [4, 8] | Plant response rating, Ducksalad ([4]; Rate 250 g/ha) | Plant response rating, Ducksalad ([4]; Rate 500 g/ha) | Plant response rating, Giant foxtail [5, 9] | Plant response rating, Giant foxtail ([5]; Rate 125 g/ha, Preemergence) | Plant response rating, Giant foxtail ([5]; Rate 250 g/ha, Preemergence) | Plant response rating, Giant foxtail ([5]; Rate 500 g/ha, Preemergence) | Plant response rating, Nutsedge [6, 9] | Nutsedge plant response rating ([6]; Rate 62 g/ha, Postemergence) | Nutsedge plant response rating ([6]; Rate 125 g/ha, Postemergence) | Plant response rating, Nutsedge ([6]; Rate 125 g/ha, Preemergence) | Plant response rating, Nutsedge ([6]; Rate 250 g/ha, Postemergence) | Plant response rating, Nutsedge ([6]; Rate 250 g/ha, Preemergence) | Plant response rating, Nutsedge ([6]; Rate 500 g/ha, Preemergence)

Cc1cnc(-n2cnc(C(F)(F)F)n2)nc1C(=O)c1cccc(C(F)(F)F)c1 [Compound 67]
5: S. Flatsedge plant response rating [2, 7] | Plant response rating, Barnyardgrass ([3]; Rate 250 g/ha) | Giant foxtail plant response rating ([5]; Rate 62 g/ha, Postemergence)
8: S. Flatsedge plant response rating [2, 8] | Plant response rating, Ducksalad ([4]; Rate 500 g/ha)
2: Rice plant response rating [1, 8] | Plant response rating, Rice ([1]; Rate 250 g/ha) | Nutsedge plant response rating ([6]; Rate 125 g/ha, Postemergence)
4: Plant response rating, Rice ([1]; Rate 500 g/ha) | Ducksalad plant response rating [4, 8] | Plant response rating, Nutsedge ([6]; Rate 250 g/ha, Postemergence)
0: Nutsedge plant response rating ([6]; Rate 62 g/ha, Postemergence) | Plant response rating, Nutsedge ([6]; Rate 500 g/ha, Preemergence)
9: Plant response rating, S. Flatsedge ([2]; Rate 250 g/ha) | Plant response rating, S. Flatsedge ([2]; Rate 500 g/ha) | Plant response rating, Giant foxtail ([5]; Rate 125 g/ha, Preemergence) | Plant response rating, Giant foxtail ([5]; Rate 250 g/ha, Postemergence) | Plant response rating, Giant foxtail ([5]; Rate 500 g/ha, Postemergence)
10: Plant response rating, Giant foxtail ([5]; Rate 250 g/ha, Preemergence) | Plant response rating, Giant foxtail ([5]; Rate 500 g/ha, Preemergence)
3: Barnyardgrass plant response rating [3, 7] | Barnyardgrass plant response rating [3, 8] | Ducksalad plant response rating [4, 7]
1: Rice plant response rating [1, 7]
7: Plant response rating, Giant foxtail [5, 9]
6: Plant response rating, Barnyardgrass ([3]; Rate 500 g/ha) | Plant response rating, Ducksalad ([4]; Rate 250 g/ha) | Giant foxtail plant response rating ([5]; Rate 125 g/ha, Postemergence)

Cc1cnc(-n2ccc(C(F)(F)C(F)(F)F)n2)nc1C(=O)c1cccc(C(F)(F)F)c1 [Compound 68]
7: S. Flatsedge plant response rating [2, 8] | Plant response rating, S. Flatsedge ([2]; Rate 250 g/ha) | Plant response rating, S. Flatsedge ([2]; Rate 500 g/ha)
10: Plant response rating, Giant foxtail ([5]; Rate 500 g/ha, Preemergence)
9: Plant response rating, Giant foxtail ([5]; Rate 250 g/ha, Preemergence)
1: Rice plant response rating [1, 8] | Ducksalad plant response rating [4, 8] | Giant foxtail plant response rating ([5]; Rate 62 g/ha, Postemergence)
3: Plant response rating, Rice ([1]; Rate 250 g/ha) | Plant response rating, Rice ([1]; Rate 500 g/ha) | Barnyardgrass plant response rating [3, 8] | Plant response rating, Ducksalad ([4]; Rate 500 g/ha) | Plant response rating, Giant foxtail [5, 9] | Plant response rating, Giant foxtail ([5]; Rate 500 g/ha, Postemergence)
2: Barnyardgrass plant response rating [3, 7] | Plant response rating, Ducksalad ([4]; Rate 250 g/ha) | Giant foxtail plant response rating ([5]; Rate 125 g/ha, Postemergence) | Plant response rating, Giant foxtail ([5]; Rate 250 g/ha, Postemergence)
0: Rice plant response rating [1, 7] | Ducksalad plant response rating [4, 7] | Plant response rating, Nutsedge [6, 9] | Nutsedge plant response rating ([6]; Rate 62 g/ha, Postemergence) | Nutsedge plant response rating ([6]; Rate 125 g/ha, Postemergence) | Plant response rating, Nutsedge ([6]; Rate 125 g/ha, Preemergence) | Plant response rating, Nutsedge ([6]; Rate 250 g/ha, Postemergence) | Plant response rating, Nutsedge ([6]; Rate 250 g/ha, Preemergence) | Plant response rating, Nutsedge ([6]; Rate 500 g/ha, Preemergence)
5: S. Flatsedge plant response rating [2, 7]
6: Plant response rating, Giant foxtail ([5]; Rate 125 g/ha, Preemergence)
4: Plant response rating, Barnyardgrass ([3]; Rate 250 g/ha) | Plant response rating, Barnyardgrass ([3]; Rate 500 g/ha)

Cc1cnc(-c2ccc(C(F)(F)F)cc2)nc1C(=O)c1cccc(C(F)(F)F)c1 [Compound 73]
6: Plant response rating, Rice ([1]; Rate 250 g/ha) | Plant response rating, S. Flatsedge ([2]; Rate 250 g/ha) | Plant response rating, Barnyardgrass ([3]; Rate 250 g/ha) | Giant foxtail plant response rating ([5]; Rate 62 g/ha, Postemergence)
3: Plant response rating, Rice ([1]; Rate 500 g/ha) | S. Flatsedge plant response rating [2, 7] | S. Flatsedge plant response rating [2, 8] | Plant response rating, S. Flatsedge ([2]; Rate 500 g/ha) | Plant response rating, Ducksalad ([4]; Rate 500 g/ha)
1: Ducksalad plant response rating [4, 7] | Ducksalad plant response rating [4, 8]
2: Plant response rating, Ducksalad ([4]; Rate 250 g/ha) | Plant response rating, Nutsedge ([6]; Rate 250 g/ha, Postemergence)
5: Rice plant response rating [1, 7] | Rice plant response rating [1, 8] | Barnyardgrass plant response rating [3, 8]
9: Plant response rating, Giant foxtail ([5]; Rate 250 g/ha, Postemergence) | Plant response rating, Giant foxtail ([5]; Rate 500 g/ha, Postemergence)
0: Plant response rating, Nutsedge [6, 9] | Nutsedge plant response rating ([6]; Rate 62 g/ha, Postemergence) | Nutsedge plant response rating ([6]; Rate 125 g/ha, Postemergence) | Plant response rating, Nutsedge ([6]; Rate 125 g/ha, Preemergence) | Plant response rating, Nutsedge ([6]; Rate 250 g/ha, Preemergence) | Plant response rating, Nutsedge ([6]; Rate 500 g/ha, Preemergence)
4: Barnyardgrass plant response rating [3, 7] | Plant response rating, Barnyardgrass ([3]; Rate 500 g/ha)
10: Plant response rating, Giant foxtail [5, 9] | Plant response rating, Giant foxtail ([5]; Rate 125 g/ha, Preemergence) | Plant response rating, Giant foxtail ([5]; Rate 250 g/ha, Preemergence) | Plant response rating, Giant foxtail ([5]; Rate 500 g/ha, Preemergence)
8: Giant foxtail plant response rating ([5]; Rate 125 g/ha, Postemergence)
